Molecular target: wild-type T7 RNA polymerase (Escherichia phage T7, UniProt P00573)
Experiment: Accelerating effect of polyamines on in vitro transcription activity of T7 RNA polymerase ([α32P]UTP incorporation, gel electrophoresis)
Format: biochemical, bacteriophage T7
Set-up: key: fold radioactivity relative to blank without polyamine
Settings: polyamine final concentration 2 mM, 37° C. for one hour; amplification of radioactivity of transcription products compared to a blank without polyamine
Protocol: An activation level was evaluated by observing an effect of a polyamine on in vitro transcription activation using bacteriophage T7 RNA polymerase in the reaction system below.
Each polyamine was added to 10 μl of reaction solution (40 mM Tris-Cl, pH 8.0, 8 mM MgCl2, 5 mM DTT, 200 µM GMP, wild-type T7 RNA polymerase 5U, 0.2 μCi [α32P]UTP, dsDNA produced by cleavage of pBluescript [Stratagene] by a restriction enzyme Pvull 500 μM as rNTP template DNA) to yield a final concentration of 2 mM, then reacted at 37° C. for one hour. After the reaction, 10 μl of formamide loading dye (98% formamide, 10 mM EDTA) was added to the products, heated at 90° C. for modification, subsequently analyzed by electrophoresis on 4% acrylamide gel. The gel was dried after the electrophoresis, observed for radioactivity contained in the transcription products using the BAS2000 image analysis system (Fujiphotofilm Inc.), and evaluated for activation level of each polyamine.
Data is given in amplification of radioactivity compared to a blank in which a reaction is carried out in parallel in the same condition excepting no polyamine was added.

Sequence of wild-type T7 RNA polymerase (P00573 whole entry): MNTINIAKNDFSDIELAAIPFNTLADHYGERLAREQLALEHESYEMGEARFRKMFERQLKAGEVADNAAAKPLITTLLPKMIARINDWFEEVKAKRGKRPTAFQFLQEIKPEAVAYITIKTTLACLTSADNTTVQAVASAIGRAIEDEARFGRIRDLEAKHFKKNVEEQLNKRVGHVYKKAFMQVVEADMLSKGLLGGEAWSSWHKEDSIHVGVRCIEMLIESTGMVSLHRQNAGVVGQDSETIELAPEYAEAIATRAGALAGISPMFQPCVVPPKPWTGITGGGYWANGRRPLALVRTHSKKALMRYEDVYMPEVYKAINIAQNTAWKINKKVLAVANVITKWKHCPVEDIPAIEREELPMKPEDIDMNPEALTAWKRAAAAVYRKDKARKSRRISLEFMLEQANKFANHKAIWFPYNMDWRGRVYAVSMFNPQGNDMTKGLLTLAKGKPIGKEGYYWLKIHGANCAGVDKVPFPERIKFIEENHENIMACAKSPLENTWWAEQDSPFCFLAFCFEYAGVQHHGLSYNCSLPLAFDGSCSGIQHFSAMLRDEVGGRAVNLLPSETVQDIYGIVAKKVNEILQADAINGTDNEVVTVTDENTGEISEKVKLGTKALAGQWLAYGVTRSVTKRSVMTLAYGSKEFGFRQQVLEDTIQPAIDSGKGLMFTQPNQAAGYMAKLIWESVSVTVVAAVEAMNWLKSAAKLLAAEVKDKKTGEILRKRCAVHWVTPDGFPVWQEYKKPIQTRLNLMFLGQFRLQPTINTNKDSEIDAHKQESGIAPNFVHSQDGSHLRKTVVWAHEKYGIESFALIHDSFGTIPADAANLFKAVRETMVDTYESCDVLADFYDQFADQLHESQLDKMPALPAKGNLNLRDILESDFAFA

Structure (SMILES)	Activity Level
CCNCCCCNCCCCCCCNCCCCNCC [Compound 15d, 1,17-di(ethylamino)-5,13-diazaheptadecane]	1.29
CCNCCCCCNCC [Compound 23, N1,N5-di(ethylamino)pentane]	3.52
CCNCCCCNCCCCCCCCNCCCCNCC [Compound 15e, 1, 18-di(ethylamino)-5,14-diazaoctadecane]	2.52
CCNCCCCNCCCCNCCCCNCC [Compound 15a, 1,14-di(ethylamino)-5,10-diazatetradecane]	1.21
CCNCCCCNCCCCCCCCCNCCCCNCC [Compound 15f, 1,19-di(ethylamino)-5,15-diazanonadecane]	1.18
CCN(CCCCCN(CC)S(=O)(=O)c1ccc(C)cc1)S(=O)(=O)c1ccc(C)cc1 [Compound 22, N1,N5-di(p-toluenesulfonyl)-di(ethylamino)pentane]	1.43
CCNCCCCNCCCCCCCCCCNCCCCNCC [Compound 15g, 1,20-di(ethylamino)-5,16-diazaeicosane]	2.01
CCNCCCNCCCCN [Compound 18, 1-ethylamino-8-amino-4-azaoctane]	1.12
CCNCCCCCCCCNCC [Compound 21, N1,N8di(ethylamino)-octane]	4.91
CCNCCCCNCCCCCCNCCCCNCC [Compound 15c, 1,16-di (ethylamino)-5,12-diazahexadecane]	1.12
CCNCCCCNCCCCCNCCCCNCC [Compound 15b, 1,15-di(ethylamino)-5,11-diazapentadecane]	1.18
NCCCCNCCCCCCCCNCCCCN [Compound 19, 1,18-diamino-5,14-diazaoctadecane]	1.41
CCN(CCCCCCCCN(CC)S(=O)(=O)c1ccc(C)cc1)S(=O)(=O)c1ccc(C)cc1 [Compound 20, N1,N8-di(p-toluenesulfonyl)-di(ethylamino)-octane]	1.11
